Reference: ChEMBL document CHEMBL4732046, “A red-light-activated sulfonamide porphycene for highly efficient photodynamic therapy against hypoxic tumor” (Eur J Med Chem, 2021)

Tests used:
HeLa [1] = experiment: Photocytotoxicity against human HeLa cells assessed as reduction in cell viability irradiated with 640 +/- 15 nm red LED for 4 hrs measured after 24 hrs by MTT assay; assay type: functional, cell-based; settings: light or radiation study
KYSE-70 cell line [2] = experiment: Photocytotoxicity against human KYSE-70 cells assessed as reduction in cell viability irradiated with 640 +/- 15 nm red LED for 4 hrs measured after 24 hrs by MTT assay; assay type: functional, cell-based; settings: KYSE-70, light or radiation study
A-375 [3] = experiment: Photocytotoxicity against human A-375 cells assessed as reduction in cell viability irradiated with 640 +/- 15 nm red LED for 4 hrs measured after 24 hrs by MTT assay; assay type: functional, cell-based; settings: A-375, light or radiation study
B16 [4] = experiment: Photocytotoxicity against mouse B16 cells assessed as reduction in cell viability irradiated with 640 +/- 15 nm red LED for 4 hrs measured after 24 hrs by MTT assay; assay type: functional, cell-based; settings: B16, light or radiation study
HeLa [5] = experiment: Photocytotoxicity against human HeLa cells assessed as reduction in cell viability irradiated with 640 +/- 15 nm red LED for 4 hrs measured after 24 hrs under hypoxic condition by MTT assay; assay type: functional, cell-based; settings: light or radiation study
KYSE-70 cell line [6] = experiment: Photocytotoxicity against human KYSE-70 cells assessed as reduction in cell viability irradiated with 640 +/- 15 nm red LED for 4 hrs measured after 24 hrs under hypoxic condition by MTT assay; assay type: functional, cell-based; settings: KYSE-70, light or radiation study
A-375 [7] = experiment: Photocytotoxicity against human A-375 cells assessed as reduction in cell viability irradiated with 640 +/- 15 nm red LED for 4 hrs measured after 24 hrs under hypoxic condition by MTT assay; assay type: functional, cell-based; settings: A-375, light or radiation study
B16 [8] = experiment: Photocytotoxicity against mouse B16 cells assessed as reduction in cell viability irradiated with 640 +/- 15 nm red LED for 4 hrs measured after 24 hrs under hypoxic condition by MTT assay; assay type: functional, cell-based; settings: B16, light or radiation study
HeLa [9] = experiment: Cytotoxicity against human HeLa cells assessed as cell viability in dark measured after 24 hrs by MTT assay; assay type: functional, cell-based
KYSE-70 cell line [10] = experiment: Cytotoxicity against human KYSE-70 cells assessed as cell viability in dark measured after 24 hrs by MTT assay; assay type: functional, cell-based; settings: KYSE-70, 24 h
A-375 [11] = experiment: Cytotoxicity against human A-375 cells assessed as cell viability in dark measured after 24 hrs by MTT assay; assay type: functional, cell-based; settings: A-375, 24 h
B16 [12] = experiment: Cytotoxicity against mouse B16 cells assessed as cell viability in dark measured after 24 hrs by MTT assay; assay type: functional, cell-based; settings: B16, 24 h
HeLa [13] = experiment: Photo-therapeutic index, ratio of LD50 for photocytotoxicity against human HeLa cells assessed as reduction in cell viability irradiated with 640 +/- 15 nm red LED for 4 hrs measured after 24 hrs by MTT assay to LD50 for cytotoxicity against human HeLa cells assessed as cell viability in dark measured after 24 hrs by MTT assay; assay type: functional

SMILES	DC50 (HeLa [1]) [nM]	DC50 (KYSE-70 cell line [2]) [nM]	DC50 (A-375 [3]) [nM]	DC50 (B16 [4]) [nM]	DC50 (HeLa [5]) [nM]	DC50 (KYSE-70 cell line [6]) [nM]	DC50 (A-375 [7]) [nM]	DC50 (B16 [8]) [nM]	DC50 (HeLa [9]) [nM]	DC50 (KYSE-70 cell line [10]) [nM]	DC50 (A-375 [11]) [nM]	DC50 (B16 [12]) [nM]	Ratio (HeLa [13])
CC(C)(C)C1=Cc2nc1ccc1[nH]c(cc1C(C)(C)C)c1nc(ccc3[nH]c2cc3S(=O)(=O)NCCOCCO)C(S(=O)(=O)NCCOCCO)=C1	69	5	23	168	329	24	57	370	24000	28000	28000	57000	73
CC/N=c1/cc2sc3cc(N(CC)CC)ccc3nc-2c2ccccc12	95	305	507	930	1030	809	1300	1890	7000	4000	1000	11000	
